Laboratory results taken from PubChem BioAssay AID192 (DTP/NCI, 2004).
“And” between values parts separate entries of the source, which are not always exact repeats. Equal entries are not always repeated. Toxic doses and inconclusive results are not listed. Rule for the calls: active = survival T/C of 150% or more; inactive = T/C below 125% in these data.

System: BDF1 mice, B16 melanoma ip, median survival T/C
Experiment: NCI In Vivo Anticancer Drug Screen. Data for tumor model B16 Melanoma (intraperitoneal) in B6D2F1 (BDF1) mice
Conditions: endpoint: median survival time, higher = longer survival
In short: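 Mice with transplantable tumors; drug vs vehicle groups; endpoint survival or tumor size; value = T/C.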

[1] = dose: 50.0 mg/kg/injection, schedule: Q01DX009 (ip), vehicle: Klucel (hydroxypropylcellulose) (HPC)
[2] = dose: 100.0 mg/kg/injection, schedule: Q01DX009 (ip), vehicle: Klucel (hydroxypropylcellulose) (HPC)
[3] = dose: 200.0 mg/kg/injection, schedule: Q01DX009 (ip), vehicle: Klucel (hydroxypropylcellulose) (HPC)
[4] = dose: 400.0 mg/kg/injection, schedule: Q01DX009 (ip), vehicle: Klucel (hydroxypropylcellulose) (HPC)
[5] = dose: 25.0 mg/kg/injection, schedule: Q04DX003 (ip), vehicle: Klucel (hydroxypropylcellulose) (HPC)
[6] = dose: 50.0 mg/kg/injection, schedule: Q01DX009 (ip), vehicle: saline with Tween-80
[7] = dose: 100.0 mg/kg/injection, schedule: Q01DX009 (ip), vehicle: saline with Tween-80
[8] = dose: 25.0 mg/kg/injection, schedule: Q01DX009 (ip), vehicle: saline with Tween-80

Measured: T/C

O=C(O)C1c2ccccc2Cc2ccccc21
inactive: dose: 37.5 mg/kg/injection, schedule: Q04DX003 (ip), vehicle: Klucel (hydroxypropylcellulose) (HPC) 122 % of control | [1] 97 % of control | dose: 75.0 mg/kg/injection, schedule: Q04DX003 (ip), vehicle: Klucel (hydroxypropylcellulose) (HPC) 119 % of control | [2] 100 % of control | dose: 150.0 mg/kg/injection, schedule: Q04DX003 (ip), vehicle: Klucel (hydroxypropylcellulose) (HPC) 119 % of control | [3] 105 % of control

O=C(O)CCNCCO
inactive: dose: 400.0 mg/kg/injection, schedule: Q01DX009 (ip), vehicle: saline 97 % of control

CN1CCN(c2ccc([N+](=O)[O-])c3no[n+]([O-])c23)CC1
inactive: dose: 5.0 mg/kg/injection, schedule: Q01DX009 (ip), vehicle: saline with Tween-80 111 % of control | dose: 5.0 mg/kg/injection, schedule: Q01DX011 (ip), vehicle: saline with Tween-80 110 % of control | dose: 10.0 mg/kg/injection, schedule: Q01DX009 (ip), vehicle: saline with Tween-80 107 % of control | dose: 10.0 mg/kg/injection, schedule: Q01DX011 (ip), vehicle: saline with Tween-80 109 % of control

COc1cccc(C(=O)C(CCC#N)c2ccccc2)c1 (stereo unspecified)
inactive: [2] 103 % of control | [3] 96 % of control | [4] 103 % of control

CC(C)C(NC(=O)c1ccccc1)C(=O)O (stereo unspecified)
inactive: [5] 111 % of control | [6] 95 % of control | dose: 50.0 mg/kg/injection, schedule: Q04DX003 (ip), vehicle: Klucel (hydroxypropylcellulose) (HPC) 100 % of control | [2] 103 % of control | [7] 93 % of control | dose: 100.0 mg/kg/injection, schedule: Q04DX003 (ip), vehicle: Klucel (hydroxypropylcellulose) (HPC) 86 % of control | [3] 96 % of control

CCc1ccccc1NC(=O)C(c1ccccc1)c1ccccc1
inactive: [8] 99 % of control | [6] 97 % of control | [7] 92 % of control

C=CC1CC[N-]CC1.C=CC1CC[N-]CC1.C=CC1CC[N-]CC1.[Cl][Cr]([Cl])[Cl]
inactive: dose: 8.0 mg/kg/injection, schedule: Q04DX003 (ip), vehicle: saline with Tween-80 97 % of control | dose: 12.0 mg/kg/injection, schedule: Q04DX003 (ip), vehicle: saline with Tween-80 102 % of control | dose: 12.5 mg/kg/injection, schedule: Q01DX009 (ip), vehicle: saline with Tween-80 95 % of control | dose: 18.0 mg/kg/injection, schedule: Q04DX003 (ip), vehicle: saline with Tween-80 105 % of control | [8] 95 % of control | dose: 25.0 mg/kg/injection, schedule: Q04DX003 (ip), vehicle: saline with Tween-80 121 % of control | [6] 102 % of control | dose: 50.0 mg/kg/injection, schedule: Q04DX003 (ip), vehicle: saline with Tween-80 113 % of control

CCOC(=O)c1ccc(NC(=O)NC)cc1
inactive: dose: 100.0 mg/kg/injection, schedule: Q04DX003 (ip), vehicle: saline with Tween-80 93 % of control | dose: 200.0 mg/kg/injection, schedule: Q04DX003 (ip), vehicle: saline with Tween-80 86 % of control | dose: 400.0 mg/kg/injection, schedule: Q04DX003 (ip), vehicle: saline with Tween-80 86 % of control

C(=C\c1cccnc1)/c1ccncc1
inactive: dose: 66.0 mg/kg/injection, schedule: Q01DX009 (ip), vehicle: saline with Tween-80 96 % of control | [7] 93 % of control

NC(=O)C=C1c2ccccc2-c2ccccc21
inactive: dose: 25.0 mg/kg/injection, schedule: Q01DX009 (ip), vehicle: Klucel (hydroxypropylcellulose) (HPC) 100 % of control | [1] 100 % of control | [2] 94 % of control | [3] 88 % of control | [4] 86 % of control

CNC(Cc1ccccc1)C1CCCCC1 (stereo unspecified)
inactive: dose: 6.25 mg/kg/injection, schedule: Q04DX003 (ip), vehicle: Klucel (hydroxypropylcellulose) (HPC) 102 % of control | dose: 12.5 mg/kg/injection, schedule: Q04DX003 (ip), vehicle: Klucel (hydroxypropylcellulose) (HPC) 100 % of control | [5] 96 % of control

CN=C1CN(O)C(c2ccccc2)=c2cc(Cl)ccc2=N1
inactive: dose: 3.12 mg/kg/injection, schedule: Q01DX009 (ip), vehicle: saline 115 % of control | dose: 6.25 mg/kg/injection, schedule: Q01DX009 (ip), vehicle: saline 101 % of control and 114 % of control | dose: 12.5 mg/kg/injection, schedule: Q01DX009 (ip), vehicle: saline 92 % of control and 94 % of control and 101 % of control | dose: 25.0 mg/kg/injection, schedule: Q01DX009 (ip), vehicle: saline 100 % of control and 101 % of control | dose: 50.0 mg/kg/injection, schedule: Q01DX009 (ip), vehicle: saline 114 % of control and 117 % of control | dose: 100.0 mg/kg/injection, schedule: Q01DX009 (ip), vehicle: saline 100 % of control and 102 % of control
